Measurements taken from PubChem BioAssay (NCI).
Values joined by “and” are separate entries in the source; they are usually repeats but may differ in a detail not shown here. Equal values may be shown once.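 Dose response: 5 concentrations. Exposure: 48 h. Format: 96-well plates. Endpoint: linear interpolation; highest concentration if not reached. Here, GI50 denotes the concentration required for 50% inhibition of growth. TGI marks complete inhibition of growth.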

These compounds were tested on CCRF-CEM leukemia (assay: inhibition of tumour cell growth, NCI panel, 48 h).

SMILES	TGI
CCC(=O)NC(Nc1cc(C)on1)(C(F)(F)F)C(F)(F)F	> 100 µM
O=C1C=C[C@@H](COC2OC(CO)C(O)C(O)C2O)O1 (some centres not stated)	13.9 µM and 40.8 µM
Nc1nc(-c2ccccc2)nc2oc(-c3cccs3)nc12	> 100 µM
O=c1[nH]c(=S)[nH]c2c1C(c1ccc([N+](=O)[O-])cc1)c1c([nH]c(=S)[nH]c1=O)O2	> 100 µM
O=C(OCc1ccccc1)N1CCNCCN(C(=O)OCc2ccccc2)CCNCC1	> 100 µM

The compounds below were run on SK-MEL-5 melanoma (assay: inhibition of tumour cell growth, NCI panel, 48 h).

SMILES	TGI [µM]
COc1cccc(Nc2nc(-c3cccs3)nc3cc(OC)c(OC)cc23)c1	44.5
COc1ccc2[nH]cc(/C=C(/C)c3ccncc3)c2c1	9.24
Cc1cc(Nc2ccc(S(=O)(=O)O)c3cc(S(=O)(=O)O)cc(S(=O)(=O)O)c23)c2ccccc2n1	> 100
COC(=O)[C@@H](O)[C@](O)(CCC(C)C)C(=O)O[C@@H]1C(OC)=C[C@]23CCCN2CCc2cc4c(cc2[C@H]13)OCO4	5.99
COc1ccc2cc1Oc1ccc(cc1)C[C@H]1c3cc(c(OC)cc3CCN1C)Oc1c(O)c(OC)cc3c1[C@H](C2)N(C)CC3	29.4
Nc1ncnc2c1[nH]c(=O)n2-c1ccccc1	> 100
N[C@@H](CCC(=O)NCP(=O)(O)O)C(=O)O	> 100
CCC(=O)NC(Nc1cc(C)on1)(C(F)(F)F)C(F)(F)F	> 100
Cc1ccccc1OC(C)C(=O)NN1C(=O)CSC1c1ccccc1 (configuration not stated)	> 100
O=C1C=C[C@@H](COC2OC(CO)C(O)C(O)C2O)O1 (some centres not stated)	33.9
Nc1nc(-c2ccccc2)nc2oc(-c3cccs3)nc12	> 100
O=c1[nH]c(=S)[nH]c2c1C(c1ccc([N+](=O)[O-])cc1)c1c([nH]c(=S)[nH]c1=O)O2	> 100
Cn1c(=O)c2c(nc3n2CC(C(=O)O)N3)n(C)c1=O (configuration not stated)	> 100
O=C(OCc1ccccc1)N1CCNCCN(C(=O)OCc2ccccc2)CCNCC1	26.7
COc1ccc(-n2c(C)nc3ccc(NC(=S)Nc4ccccc4)cc3c2=O)cc1	> 100

What follows are compounds tested on RPMI-8226 leukemia (assay: inhibition of tumour cell growth, NCI panel, 48 h).

SMILES	TGI	GI50 [µM]
COc1cccc(Nc2nc(-c3cccs3)nc3cc(OC)c(OC)cc23)c1	27.3 µM	
Nn1c(Nc2ccc(S(=O)(=O)Nc3ncccn3)cc2)nnc(/C=C/c2c(O)ccc3ccccc23)c1=O	> 100 µM	
COc1ccc2[nH]cc(/C=C(/C)c3ccncc3)c2c1	16.5 µM and > 100 µM	2.7
Cc1cc(Nc2ccc(S(=O)(=O)O)c3cc(S(=O)(=O)O)cc(S(=O)(=O)O)c23)c2ccccc2n1	> 100 µM	
COC(=O)[C@@H](O)[C@](O)(CCC(C)C)C(=O)O[C@@H]1C(OC)=C[C@]23CCCN2CCc2cc4c(cc2[C@H]13)OCO4	6.06 µM	
CC1(C)O[C@H]2OC(CO[Si](C)(C)C(C)(C)C)C(N=[N+]=[N-])[C@H]2O1 (some centres not stated)	28.8 µM	
COc1ccc2cc1Oc1ccc(cc1)C[C@H]1c3cc(c(OC)cc3CCN1C)Oc1c(O)c(OC)cc3c1[C@H](C2)N(C)CC3	75.2 µM	
Oc1ccc(Cc2cc(Cc3ccc(O)cc3)cc(Cc3ccc(O)cc3)c2)cc1	> 50 µM	
Nc1ncnc2c1[nH]c(=O)n2-c1ccccc1	> 100 µM	
N[C@@H](CCC(=O)NCP(=O)(O)O)C(=O)O	> 100 µM	
CCC(=O)NC(Nc1cc(C)on1)(C(F)(F)F)C(F)(F)F	> 100 µM	
Cc1ccccc1OC(C)C(=O)NN1C(=O)CSC1c1ccccc1 (configuration not stated)	> 100 µM	
O=C1C=C[C@@H](COC2OC(CO)C(O)C(O)C2O)O1 (some centres not stated)		2.45
Nc1nc(-c2ccccc2)nc2oc(-c3cccs3)nc12	> 100 µM	
O=c1[nH]c(=S)[nH]c2c1C(c1ccc([N+](=O)[O-])cc1)c1c([nH]c(=S)[nH]c1=O)O2	> 100 µM	
Cn1c(=O)c2c(nc3n2CC(C(=O)O)N3)n(C)c1=O (configuration not stated)	> 100 µM	
O=C(OCc1ccccc1)N1CCNCCN(C(=O)OCc2ccccc2)CCNCC1	47.3 µM	
COc1ccc(-n2c(C)nc3ccc(NC(=S)Nc4ccccc4)cc3c2=O)cc1	> 100 µM	

The compounds below were run on NCI/ADR-RES ovarian (assay: inhibition of tumour cell growth, NCI panel, 48 h).

SMILES	TGI [µM]	GI50 [µM]
COc1cccc(Nc2nc(-c3cccs3)nc3cc(OC)c(OC)cc23)c1	63.8	
Nn1c(Nc2ccc(S(=O)(=O)Nc3ncccn3)cc2)nnc(/C=C/c2c(O)ccc3ccccc23)c1=O	79.7	
COc1ccc2[nH]cc(/C=C(/C)c3ccncc3)c2c1		2.11
